According to the supplement of paper PMC11451515:

Test system: NOMO1
Assay: cell viability relative to DMSO control; higher = less cytotoxic
Conditions: 48 h
Method in brief: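 Three leukemia lines were tested: NOMO1 and SEM at 500 cells/well and P12-Ichikawa at 1000 cells/well. Each was adapted for at least four passages in each medium and seeded in 5 μl in 1536-well plates, and library compounds in DMSO were pin-dosed from 47 μM to 0.79 nM in 11 threefold steps. After 48 h at 37°C, CellTiter-Glo One luminescence was read. Viability is a percentage relative to DMSO wells on each plate, with cell-free wells as background.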

[1] = HPLM + 10% dialyzed FBS, 0.000781 µM
[2] = HPLM + 10% dialyzed FBS, 0.00234 µM
[3] = HPLM + 10% dialyzed FBS, 0.00702 µM
[4] = HPLM + 10% dialyzed FBS, 0.0211 µM
[5] = HPLM + 10% dialyzed FBS, 0.0632 µM
[6] = HPLM + 10% dialyzed FBS, 0.19 µM
[7] = HPLM + 10% dialyzed FBS, 0.569 µM
[8] = HPLM + 10% dialyzed FBS, 1.71 µM
[9] = HPLM + 10% dialyzed FBS, 5.12 µM
[10] = HPLM + 10% dialyzed FBS, 15.4 µM
[11] = HPLM + 10% dialyzed FBS, 46.1 µM
[12] = RPMI 5 mM glucose + 10% FBS, 0.000781 µM
[13] = RPMI 5 mM glucose + 10% FBS, 0.00234 µM
[14] = RPMI 5 mM glucose + 10% FBS, 0.00702 µM
[15] = RPMI 5 mM glucose + 10% FBS, 0.0211 µM
[16] = RPMI 5 mM glucose + 10% FBS, 0.0632 µM
[17] = RPMI 5 mM glucose + 10% FBS, 0.19 µM
[18] = RPMI 5 mM glucose + 10% FBS, 0.569 µM
[19] = RPMI 5 mM glucose + 10% FBS, 1.71 µM
[20] = RPMI 5 mM glucose + 10% FBS, 5.12 µM
[21] = RPMI 5 mM glucose + 10% FBS, 15.4 µM
[22] = RPMI 5 mM glucose + 10% FBS, 46.1 µM
[23] = RPMI 5 mM glucose + 10% dialyzed FBS, 0.000781 µM
[24] = RPMI 5 mM glucose + 10% dialyzed FBS, 0.00234 µM
[25] = RPMI 5 mM glucose + 10% dialyzed FBS, 0.00702 µM
[26] = RPMI 5 mM glucose + 10% dialyzed FBS, 0.0211 µM
[27] = RPMI 5 mM glucose + 10% dialyzed FBS, 0.0632 µM
[28] = RPMI 5 mM glucose + 10% dialyzed FBS, 0.19 µM
[29] = RPMI 5 mM glucose + 10% dialyzed FBS, 0.569 µM
[30] = RPMI 5 mM glucose + 10% dialyzed FBS, 1.71 µM
[31] = RPMI 5 mM glucose + 10% dialyzed FBS, 5.12 µM
[32] = RPMI 5 mM glucose + 10% dialyzed FBS, 15.4 µM
[33] = RPMI 5 mM glucose + 10% dialyzed FBS, 46.1 µM

SMILES | cell viability [1] | cell viability [2] | cell viability [3] | cell viability [4] | cell viability [5] | cell viability [6] | cell viability [7] | cell viability [8] | cell viability [9] | cell viability [10] | cell viability [11] | cell viability [12] | cell viability [13] | cell viability [14] | cell viability [15] | cell viability [16] | cell viability [17] | cell viability [18] | cell viability [19] | cell viability [20] | cell viability [21] | cell viability [22] | cell viability [23] | cell viability [24] | cell viability [25] | cell viability [26] | cell viability [27] | cell viability [28] | cell viability [29] | cell viability [30] | cell viability [31] | cell viability [32] | cell viability [33]
O=P(O)(O)C(O)(Cn1ccnc1)P(=O)(O)O | 95.9% | 126% | 120% | 119% | 125% | 130% | 121% | 139% | 104% | 111% | 117% | 93.5% | 111% | 108% | 103% | 105% | 109% | 101% | 104% | 110% | 104% | 101% | 101% | 127% | 114% | 130% | 112% | 133% | 118% | 124% | 122% | 117% | 104%
COc1ccc(C(=O)CC2(O)C(=O)Nc3c(Cl)ccc(Cl)c32)cc1 (stereo not given) | 111% | 115% | 128% | 119% | 106% | 119% | 120% | 121% | 77.3% | 34.5% | 26.7% | 95.6% | 108% | 119% | 111% | 109% | 113% | 109% | 123% | 101% | 25.6% | 18.6% | 89.5% | 111% | 110% | 108% | 108% | 120% | 117% | 108% | 99.2% | 26.6% | 22.4%
CC[C@@H]([C@H](C)O)n1ncn(-c2ccc(N3CCN(c4ccc(OCC5CO[C@@](Cn6cncn6)(c6ccc(F)cc6F)C5)cc4)CC3)cc2)c1=O (stereo not given in full) | 109% | 106% | 91.5% | 112% | 106% | 98.2% | 109% | 107% | 82.4% | 94.8% | 84.9% | 101% | 97.3% | 93.3% | 97% | 83.5% | 91.4% | 87.3% | 87% | 87.5% | 82.3% | 78.1% | 95.1% | 90.3% | 92.6% | 81.3% | 93.6% | 83.4% | 92.1% | 90.1% | 90.4% | 87.1% | 78.2%
Nc1c2c(nc3ccccc13)CCCC2 | 129% | 105% | 122% | 125% | 118% | 100% | 117% | 31.8% | 83.6% | 35.5% | 10.3% | 113% | 123% | 115% | 117% | 108% | 117% | 115% | 41.6% | 98.3% | 40.2% | 8.53% | 118% | 105% | 112% | 119% | 128% | 111% | 111% | 67.9% | 80.1% | 51% | 19.2%
COC(=O)c1ccc2c(c1)NC(=O)/C2=C(\Nc1ccc(N(C)C(=O)CN2CCN(C)CC2)cc1)c1ccccc1 | 92.1% | 92.1% | 106% | 99.5% | 106% | 91.3% | 89% | 103% | 87% | 91.9% | 84.4% | 98.3% | 96.8% | 96.5% | 97.4% | 89.3% | 110% | 109% | 97.8% | 92.6% | 83.4% | 83.1% | 92.7% | 93% | 94.7% | 90.8% | 93.5% | 95.2% | 85.3% | 88.9% | 88.5% | 96.8% | 98.5%
COc1cc2c(cc1OC)CN(CCc1ccc(NC(=O)c3cc(OC)c(OC)cc3NC(=O)c3cnc4ccccc4c3)cc1)CC2 | 118% | 121% | 123% | 122% | 128% | 122% | 109% | 119% | 114% | 95.3% | 94.1% | 107% | 106% | 123% | 118% | 123% | 118% | 127% | 106% | 107% | 107% | 96.5% | 118% | 122% | 113% | 126% | 115% | 126% | 116% | 124% | 120% | 102% | 91.5%
O=C(CCCN1CCN(c2ccc(F)cc2)CC1)NC1c2ccccc2CSc2ccccc21 (stereo not given) | – | – | – | – | – | – | – | – | – | – | – | 135% | 109% | 108% | 125% | 126% | 117% | 112% | 117% | 74% | 103% | 71.1% | 121% | 120% | 125% | 114% | 118% | 112% | 113% | 106% | 99.9% | 90.8% | 58%
CNC(=O)c1ccc(Nc2cc(Nc3ccccc3[S+](=O)([O-])C(C)C)c3cc[nH]c3n2)nc1 | 98.4% | 105% | 111% | 105% | 116% | 102% | 108% | 91.7% | 77.6% | 70.6% | 31.7% | 98% | 100% | 101% | 103% | 102% | 106% | 108% | 102% | 49.2% | 51.9% | 25.1% | 89.1% | 99.1% | 101% | 106% | 102% | 102% | 109% | 95.7% | 57.2% | 56.7% | 34%
CC[C@H]1OC(=O)[C@H](C)C(=O)[C@H](C)[C@@H](O[C@H]2O[C@H](C)C[C@H](N(C)C)[C@H]2O)[C@](C)(OC)C[C@@H](C)C(=O)[C@H](C)[C@H]2N(CCCCn3cnc(-c4cccnc4)c3)C(=O)O[C@]12C | – | – | – | – | – | – | – | – | – | – | – | 127% | 118% | 118% | 111% | 115% | 120% | 104% | 116% | 118% | 107% | 103% | 102% | 121% | 110% | 109% | 113% | 104% | 100% | 98.8% | 116% | 107% | 95.9%
Nc1ccc([S+](=O)([O-])Nc2ccnn2-c2ccccc2)cc1 | 85.1% | 97.6% | 104% | 101% | 108% | 98.6% | 100% | 98.3% | 107% | 102% | 113% | 84.7% | 98.5% | 97.8% | 105% | 98.9% | 97% | 99.4% | 95.6% | 102% | 94.1% | 96.8% | 81.4% | 90.1% | 91.8% | 95.1% | 100% | 104% | 94.7% | 93.8% | 90.1% | 92.6% | 101%
CCc1ccc(/C=C2/SC(=S)NC2=O)cc1 | 70.3% | 79.1% | 88% | 86% | 74.5% | 74.2% | 79.2% | 79.7% | 94.3% | 51.3% | 92.2% | 75.7% | 83.5% | 81.8% | 81.9% | 87.2% | 83.8% | 88.1% | 76.3% | 93.4% | 59.9% | 75% | 78.2% | 71.1% | 83.2% | 81.4% | 87.5% | 73.4% | 84.3% | 82.1% | 85.3% | 48.6% | 86.3%
O=C(c1ccccc1)c1ccc2n1CCC2C(=O)O (stereo not given) | – | – | – | – | – | – | – | – | – | – | – | 121% | 113% | 125% | 130% | 108% | 122% | 120% | 110% | 111% | 115% | 98.6% | 107% | 115% | 110% | 121% | 125% | 108% | 116% | 115% | 97.4% | 103% | 107%
CC(C)c1cc(C(C)C)c(CC(=O)N[S+](=O)([O-])Oc2c(C(C)C)cccc2C(C)C)c(C(C)C)c1 | 103% | 110% | 93.9% | 114% | 112% | 88.6% | 92.2% | 98.8% | 100% | 92.5% | 88.9% | 96.3% | 89.8% | 88.6% | 82.8% | 94.8% | 87.8% | 105% | 93% | 98.3% | 90.5% | 86.9% | 95.9% | 89.4% | 91.4% | 89.7% | 87.4% | 91.4% | 97% | 84.5% | 90.8% | 87.9% | 65.3%
CNc1nc(Nc2cnn([C@H]3CCN(C4COC4)C[C@@H]3F)c2Cl)ncc1C(F)(F)F | 105% | 105% | 115% | 116% | 120% | 36.8% | 82.4% | 35.6% | 39.6% | 36.5% | 29.5% | 97.2% | 109% | 110% | 118% | 105% | 107% | 115% | 65.4% | 19.3% | 19.6% | 18% | 98.8% | 110% | 108% | 107% | 118% | 127% | 103% | 126% | 39.6% | 23.6% | 26.5%
CC(=O)Oc1ccccc1C(=O)Nc1ncc([N+](=O)[O-])s1 | 98.9% | 100% | 98.9% | 107% | 111% | 105% | 106% | 96.1% | 98.4% | 71.8% | 89.4% | 84% | 92% | 93.4% | 96.4% | 115% | 92.3% | 102% | 103% | 104% | 97.6% | 96.9% | 83.7% | 95.2% | 77.7% | 86.3% | 94.8% | 98.8% | 95.7% | 98.4% | 86.3% | 69.2% | 75.1%
C[C@@H](CN1CC(=O)NC(=O)C1)N1CC(=O)NC(=O)C1 | 112% | 125% | 121% | 117% | 113% | 55.7% | 32.8% | 22.3% | 33% | 8.92% | 13.7% | 106% | 113% | 125% | 101% | 113% | 89% | 55.9% | 15.4% | 17.5% | 8.63% | 12.9% | 102% | 111% | 99.9% | 114% | 109% | 83% | 44.7% | 18.8% | 21.5% | 17.2% | 19.8%
